The text below walks through data of paper PMC9133069, “In vitro proliferation and long-term preservation of functional primary rat hepatocytes in cell fibers” (Scientific Reports, 2022).

Common to all, as to type: cell-based
Assay [1] has as its system primary rat hepatocytes. The experiment in a line: Hepatotoxicity assessment, cell viability (trypan blue exclusion) after 24 h compound treatment. Particulars: Hepatocyte, 24 h treatment. On the procedure: (§1) To explore the possible application of cell fibers encapsulating primary hepatocytes in the field of drug screening, we evaluated the potential of cell fibers for in vitro detection of hepatotoxicity of drugs. […] First, primary rat hepatocytes were encapsulated into core–shell hydrogel microfibers at the initial cell seeding density of 2.5 × 10^7 cells mL^−1 and were cultured in the media supplemented with 3T3CM. Secondly, the concentration-reaction curves for these compounds were obtained through the assays of cellular viability, albumin secretion, and urea synthesis performed at different time points: 4 days, 7 days, 14 days, and 30 days after the start of culture. Thirdly, based upon these concentration-reaction curves (Figs. S4–S7), the corresponding IC50 values were estimated. Moreover, we attempted to compare these IC50 values with those obtained using another culture system where primary rat hepatocytes were cultured on collagen-coated 24-well plates.
(§2) Primary rat hepatocytes cultured either in cell fibers or in collagen-coated 24-well plates were treated for 24 h with either of these compounds diluted in media at intended concentrations, and then the respective compound-treated hepatocytes underwent assays of their different specific characteristics: cell viability, albumin secretion, or urea synthesis. Data from drug-treated hepatocytes were normalized to the respective untreated controls in the same culture system. By plotting these normalized data on y-axis and the concentrations of compounds on x-axis, the concentration-reaction curves were generated.
(§3) Culture of primary rat hepatocytes in cell fibers
(§4) After formation of core-shell hydrogel microfibers encapsulating primary rat hepatocytes, they were incubated at 37 °C for more than 15 minutes to set the ECM proteins at the core region into gels. Subsequently, primary rat hepatocytes in cell fibers were cultured in DMEM supplemented with 1% Glutamax, 10% heat-inactivated FBS, 100 IU mL-1 penicillin, 100 mg mL-1 streptomycin, insulin, 6.25 mg mL-1 transferrin, 6.25 ng mL-1 selenous acid (Lonza, Tokyo, Japan), and 1mM HEPES at 37 °C under a water saturated 5% CO2 environment; this medium is the one that have been optimized to […]
(§5) were performed every 48 hours. […]
(§6) Culture of primary rat hepatocytes using collagen-coated 24-well plates 5x10^5 primary rat hepatocytes freshly isolated were seeded on collagen-coated 24-well plates (Corning Japan K.K, Tokyo, Japan). The primary rat hepatocytes were first cultured in Dulbecco’s Modified Eagle’s Medium (DMEM; Gibco, Tokyo, Japan) supplemented with 1% Glutamax (Life Technologies, Tokyo, Japan), 10% heat-inactivated foetal bovine serum (Equitech-Bio, Kerrville, TX), 100 IU mL-1 penicillin (Gibco), 100 mg mL-1 streptomycin (Gibco), and 1mM HEPES (Sigma Aldrich, Japan)

Assay [2] concerns primary rat hepatocytes. In words: Hepatotoxicity assessment, albumin secretion (ELISA) after 24 h compound treatment. Conditions: Hepatocyte, 24 h treatment. On the procedure: as §1
(§7) The amount of albumin in culture medium was measured using an enzyme-linked immunosorbent assay kit (rat albumin ELISA kit, Bethyl Laboratories, Montgomery, TX). The amount of urea in culture medium was measured using an assay kit (QuantiChrom urea assay kit, BioAssay Systems, Hayward, CA). For both assays, respective absorbency at 450 nm or at 430 nm was measured using a microplate reader (MTP-810, Corona Electric, and Hitachi, Japan). All the values were normalized by the number of hepatocytes and the data were expressed as protein amount 10^–6 cells time^−1.
as §2, §3, §4, §5
as §6, with “Aldrich, Japan) at 37 °C under a water saturated 5% CO2 environment. […]” for “Aldrich, Japan)”
A general note: An ELISA detects its analyte on a solid surface through an enzyme-linked reagent.

The test system of assay [3] is primary rat hepatocytes. In words: Hepatotoxicity assessment, urea synthesis after 24 h compound treatment. Particulars: Hepatocyte, 24 h treatment. How it is done: as §1, §7, §2, §3, §4, §5
as §6, with “Aldrich, Japan) at 37 °C under a water saturated 5% CO2 environment. Three hours after the beginning of culture, media were changed and the primary rat hepatocytes started to be cultured in William’s medium E (Life Technologies) supplemented with 1% Glutamax, 100 IU mL-” for “Aldrich, Japan)”

For assay [4], the system named is primary rat hepatocytes. In words: Assessment of hepatocyte proliferation inhibition in cell fibers. An excerpt:
Practically, core–shell hydrogel microfibers were fabricated to encapsulate primary rat hepatocytes at the initial cell seeding density of 2.5 × 10^7 cells mL^−1.
For that, we first fabricated cell fibers encapsulating primary rat hepatocytes at the initial cell seeding density of 2.5 × 10^7 cells mL^−1. […] Subsequently, we compared these two groups over time by analyzing their morphology and cell number.
Counting primary rat hepatocytes and evaluating their viability per cell fiber were performed three times and averaged. Prior to those procedures, the alginate shells were removed, and the primary rat hepatocytes were retrieved. To remove the shells of the cell fibers, 4 mg mL^−1 of alginate lyase (Sigma Aldrich) in Dulbecco's Phosphate-Buffered Saline (DPBS) (+) was added at a 1:100 ratio to the culture media, and the media were incubated for 15 min. To retrieve primary rat hepatocytes from ECM, 4 mg mL^−1 of collagenase (Sigma-Aldrich) in DPBS (+) was added at a 1:50 ratio to the culture media and the media were incubated for 5 min. The cell number of primary rat hepatocytes per cell fiber was counted by using cell-counting plate (WakenBtech, Japan). The cellular viabilities were examined by the trypan blue dye-exclusion test.
Then immediately, this working solution was diluted in media at intended concentrations. The changeover between starting and stopping exposure to retrorsine was done by medium replacement; the culture media surrounding the cell fibers can be completely removed from petri dishes to be replaced with new ones while keeping the cell fibers intact. The proliferation rate of the hepatocytes in the experimental groups was calculated by dividing the numbers of the hepatocytes that proliferated from 2 days of culture to 3 days of culture in the experimental groups with the ones in the control group.

Where [5] appears, read: cell fibers (core–shell hydrogel microfibres), culture duration 4 days.
[6] abbreviates: cell fibers (core–shell hydrogel microfibres), culture duration 7 days.
Setting [7] is: cell fibers (core–shell hydrogel microfibres), culture duration 14 days.
[8] abbreviates: cell fibers (core–shell hydrogel microfibres), culture duration 30 days.
Setting [9] is: collagen-coated 24-well plates, culture duration 4 days.

With `CC(=O)Nc1ccc(O)cc1` [Acetaminophen], the IC50 was 18.3 mM in the assay on primary rat hepatocytes [1] (setting [5]); 18.6 mM in the assay with primary rat hepatocytes [1] (setting [6]); 18.9 mM with primary rat hepatocytes [1] (setting [7]); 18.9 mM in the assay with primary rat hepatocytes [1] (setting [8]); 19.3 mM in the assay with primary rat hepatocytes [1] (setting [9]); 16.7 mM in the assay on primary rat hepatocytes [2] (setting [5]). The IC50 in the assay with primary rat hepatocytes [2] (setting [6]) amounted to 16.4 mM; in the assay with primary rat hepatocytes [2] (setting [7]), 16.3 mM; with primary rat hepatocytes [2] (setting [8]), 15.9 mM; in the assay with primary rat hepatocytes [2] (setting [9]), 8.51 ± 0.089 mM; in the assay on primary rat hepatocytes [3] (setting [5]) it was 17 mM; with primary rat hepatocytes [3] (setting [6]), 15.9 mM. Also, the IC50 was 15.9 mM in the assay on primary rat hepatocytes [3] (setting [7]), 17.3 mM with primary rat hepatocytes [3] (setting [8]) and 24 mM in the assay on primary rat hepatocytes [3] (setting [9]).
As for `O=C(O)Cc1ccccc1Nc1c(Cl)cccc1Cl` [Diclofenac], the IC50 in the assay on primary rat hepatocytes [1] (setting [9]) came out at 0.472 ± 0.098 mM; in the assay with primary rat hepatocytes [3] (setting [9]) it was 0.385 ± 0.041 mM.
As for retrorsine, the “number of the cells in cell fibers during exposure” value in the assay on primary rat hepatocytes [4] (10 mg mL^−1, 24 h from day 2 to day 3 of culture, media containing 3T3CM) is listed as “did not change”. Moreover, in the assay with primary rat hepatocytes [4] (cell fibers with 3T3CM, 24 h exposure after 2 days of culture), the “IC50 value, inhibition of primary rat hepatocyte proliferation” value was 3100 ± 100 µg/mL. In the assay with primary rat hepatocytes [4] (cell fibers with 3T3CM, 24 h exposure after 2 days of culture, converted from mg mL^−1), this compound displayed an IC50 of around 8.82 mM.

One may read the IC50 as the concentration that gives 50% inhibition.
